PMC7565988, “Insight into the Anticancer Activity of Copper(II) 5-Methylenetrimethylammonium-Thiosemicarbazonates and Their Interaction with Organic Cation Transporters” (Biomolecules, 2020)

Experiments:
[1] = biological target: T1, OCT3 (Homo sapiens, UniProt O75751); assay: [3H]-MPP+ uptake inhibition assay in HEK-293 cells; type: cell-based; details: HEK cells stably expressing human OCT3; 10 min uptake
T1 construct: expressed in transfected cells
T1 sequence (O75751 1-556): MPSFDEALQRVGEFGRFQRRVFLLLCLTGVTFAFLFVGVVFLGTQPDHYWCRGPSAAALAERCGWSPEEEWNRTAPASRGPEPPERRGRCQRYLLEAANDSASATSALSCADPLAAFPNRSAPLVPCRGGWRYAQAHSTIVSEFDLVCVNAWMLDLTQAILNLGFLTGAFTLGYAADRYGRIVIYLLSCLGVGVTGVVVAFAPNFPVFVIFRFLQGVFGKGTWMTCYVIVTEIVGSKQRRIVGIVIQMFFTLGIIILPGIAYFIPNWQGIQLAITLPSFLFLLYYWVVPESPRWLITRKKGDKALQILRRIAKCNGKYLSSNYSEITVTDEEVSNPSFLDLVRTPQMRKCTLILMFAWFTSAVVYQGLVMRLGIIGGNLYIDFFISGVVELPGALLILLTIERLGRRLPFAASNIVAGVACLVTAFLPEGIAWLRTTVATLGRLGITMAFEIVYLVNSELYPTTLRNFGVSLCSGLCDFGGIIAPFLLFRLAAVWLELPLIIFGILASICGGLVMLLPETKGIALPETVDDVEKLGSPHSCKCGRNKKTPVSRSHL
Experimental: (§1) HEK–293 cells (LGC Standards GmbH, Germany) stably expressing human isoforms of wild type organic cation transporters 1–3 (OCT1–3) were cultured in Dulbecco’s modified Eagle’s medium (DMEM; Sigma-Aldrich) with high glucose (4.5 g/L) and L-glutamine (584 mg/L) supplemented with 10% foetal calf serum (FCS; Biowest) and penicillin/streptomycin mixture (50 mg/L; Sigma/Aldrich) at 37 °C in a humidified atmosphere (5% CO2). The selection reagent was Geneticin (150 U/mL; Merck, Germany) for all three cell lines. Cells were seeded onto poly-D-lysine (0.05 mg/mL; Sigma-Aldrich) precoated clear bottom Corning 96 well white assay plate (Sigma-Aldrich) at the density of 4 × 10^4 cells per well 24 h prior to the experiment.
(§2) The assay was performed as previously described with slight modification. Briefly, on the day of the experiment, cells were washed once with 100 µL Krebs-HEPES buffer (KHB; 10 mM HEPES, 120 mM NaCl, 3 mM KCl, 2 mM CaCl2·2H2O, 2 mM MgCl2·6H2O, 5 mM D-(+)- glucose, pH 7.3) at room temperature. Cells were preincubated for 10 min in 50 µL of RT KHB containing increasing concentrations of tested compounds previously dissolved in dimethyl sulfoxide (DMSO; final concentration in working solution was 1%). After that, the preincubation solution was quickly removed and replaced with 50 µL of uptake solution containing the aforementioned components with the addition of 50 nM [^3H]-1-methyl-4-phenylpyridinium ([^3H]-MPP^+; 60 Ci/mmol; American Radiolabeled Chemicals, Saint Louis, MO, USA). After the 10 min uptake at RT, the transport was stopped by washing cells with 100 µL of ice-cold KHB and adding 200 µL of Ultima GoldTM XR scintillation cocktail (PerkinElmer, MA, USA). The plates were shaken, placed into Wallac 1450 MicroBeta TriLux Liquid Scintillation Counter and Lumi (GMI, Ramsey, MN, USA) and the released radioactivity was measured for 3 min. Nonspecific [^3H]-MPP^+ uptake was measured in the presence of 100 µM decynium-22 and the data were plotted as a percentage of uptake in the presence of 1% DMSO from which the value of the nonspecific uptake was subtracted. Nonlinear regression analysis (GraphPad Prism version 5.0, GraphPad Software, San Diego, CA, USA) was used for calculation of IC50 values.

[2] = biological target: T2, OCT2 (Homo sapiens, UniProt O15244); assay: [3H]-MPP+ uptake inhibition assay in HEK-293 cells; type: cell-based; details: for IC50: HEK cells stably expressing human OCT2, 10 min uptake; for interaction with OCT2: [3H]-MPP+ uptake inhibition in HEK OCT2 cells
T2 construct: expressed in transfected cells
T2 sequence (O15244 1-555): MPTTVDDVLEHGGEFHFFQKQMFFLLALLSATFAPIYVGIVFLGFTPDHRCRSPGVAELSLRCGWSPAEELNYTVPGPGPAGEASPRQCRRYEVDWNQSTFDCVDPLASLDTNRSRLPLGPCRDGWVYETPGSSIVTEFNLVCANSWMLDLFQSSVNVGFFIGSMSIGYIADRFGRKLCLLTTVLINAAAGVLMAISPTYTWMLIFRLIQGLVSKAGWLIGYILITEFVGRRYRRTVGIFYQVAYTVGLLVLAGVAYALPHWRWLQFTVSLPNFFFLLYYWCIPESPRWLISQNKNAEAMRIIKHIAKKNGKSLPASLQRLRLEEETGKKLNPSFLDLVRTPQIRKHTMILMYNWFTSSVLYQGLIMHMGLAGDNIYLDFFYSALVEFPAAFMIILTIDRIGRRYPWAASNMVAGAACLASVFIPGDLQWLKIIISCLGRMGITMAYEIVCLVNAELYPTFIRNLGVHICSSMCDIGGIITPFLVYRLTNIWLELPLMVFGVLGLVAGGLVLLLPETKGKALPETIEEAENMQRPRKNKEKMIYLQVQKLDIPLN
Experimental: as §1, §2

SMILES: CNC(=S)N/N=C/c1cc(C[N+](C)(C)C)ccc1O [[H2L^Me]Cl]
- IC50 [1]: 103 ± 23.4 µM
- IC50 [2]: > 4000 µM
- interaction with OCT2 [2]: no interaction

SMILES: C[N+](C)(C)Cc1ccc(O)c(/C=N/NC(=S)Nc2ccccc2)c1 [[H2L^Ph]Cl]
- IC50 [1]: 27.8 ± 5 µM
- IC50 [2]: 371 ± 123 µM

SMILES: CCNC(=S)N/N=C/c1cc(C[N+](C)(C)C)ccc1O [[H2L^Et]Cl]
- IC50 [1]: 63.1 ± 8.9 µM
- IC50 [2]: 236 ± 97.1 µM

SMILES: C[N+](C)(C)Cc1ccc(O)c(/C=N/NC(N)=S)c1 [[H2L^H]Cl]
- IC50 [1]: 105 ± 32.8 µM
- IC50 [2]: > 4000 µM
- interaction with OCT2 [2]: no interaction
